Tests used:
NHEK = test: Proliferation assay, normal human keratinocytes NHEK; type: cell-based; conditions: 72 h culture, CyQuant proliferation assay
Procedure: (§1) Bladder cancer cell lines (T24, RT112, HT1376 and RT4 are human bladder cancer cell lines; NHEK are normal human keratinocytes) were obtained from the European Collection of Cell Cultures (Salisbury, UK). Cells were plated at 3×10^3 per well, in flat bottomed 96-well plates in 100 μl of DMEM medium containing: 5% Fetal Clone i, […] gentamicin, 1 mM sodium pyruvate and 1% non-essential amino acids. After culturing for 24 h at 37° C. in 5% CO2, to allow cells to adhere to the plates, VDR ligands (compounds (1)-(9)) were added at concentrations ranging from 100 μM to 0.3 μM in 100 μl of above-mentioned complete medium. After a further 72 h of culture, cell proliferation was measured using a fluorescence-based proliferation assay kit. (CyQuant Cell Proliferation Assay Kit, Molecular Probes, Eugene, Oreg., USA). The IC50 was calculated from the regression curve of the titration data.

RT4 = test: Proliferation assay, bladder cancer cell line RT4; type: cell-based, human; conditions: 72 h culture, CyQuant proliferation assay
Procedure: as §1

IFN-γ production = IFN-γ production in the mixed leukocyte response (MLR) of allogeneic PBMC; type: cell-based; conditions: 120 h, 5 days, ELISA, read-out: INF-γ IC50
Procedure: Immature dendritic cells (DC) were prepared as described in Romani, N. et al. (Romani, N. et al. (1996) J. Immunol. Methyl. 196:137). IFN-γ production by allogeneic T cell activation in the mixed leukocyte response (MLR) was determined as described in Penna, G., et al., J Immunol., 164: 2405-2411 (2000).
Briefly, peripheral blood mononuclear cells (PBMC) were separated from buffy coats by Ficoll gradient and the same number (3×10^5) of allogeneic PBMC from 2 different donors were co-cultured in 96-well flat-bottom plates. The vitamin D3 compounds were added to each of the cultures. After 5 days, IFN-γ production in the MLR assay was measured by ELISA and the results expressed as amount (nM) of test compound required to induce 50% inhibition of IFN-γ production (IC50).

RT112 = test: Proliferation assay, bladder cancer cell line RT112; type: cell-based, human; conditions: 72 h culture, CyQuant proliferation assay
Procedure: as §1

[1] = Determination of Maximum Tolerated Dose (MTD) in mice (serum calcium); type: in vivo; conditions: mouse, po; female C57BL/6 mice, p.o. daily for four days; highest dose without hypercalcemia (serum calcium>10.7 mg/dl)
Procedure: The maximum tolerated dose of the vitamin D3 compounds of the invention were determined in eight week-old female C57BL/6 mice (3 mice/group) dosed orally (0.1 ml/mouse) with various concentrations of Vitamin D3 analogs daily for four days. Analogs were formulated in miglyol for a final concentration of 0.01, 0.03, 0.1, 0.3, 1, 3, 10, 30, 100 and 300 μg/kg when given at 0.1 ml/mouse p.o. daily. Blood for serum calcium assay was drawn by tail bleed on day five, the final day of the study. Serum calcium levels were determined using a colorimetric assay (Sigma Diagnostics, procedure no. 597). The highest dose of analog tolerated without inducing hypercalcemia (serum calcium>10.7 mg/dl) was taken as the maximum tolerated dose (MTD).

Renin mRNA = Renin mRNA inhibition in murine juxtaglomerular cell line As4.1; type: cell-based; conditions: Mus musculus, As4.1 cells treated 24 h at 10^−8, 10^−9 and 10^−10 M, real time PCR normalized to β-actin, read-out: Renin mRNA inh.As4.1/wt
Procedure: As4.1 cells (80% subconfluent) were treated in complete medium with compounds of the invention at 10^−8,10^−9 and 10^−10 M for 24 h. Total RNA was extracted using RNeasy Mini kit (Qiagen); treated with DNase I (Qiagen) and Reverse Transcription Reagent (Applied Biosystems) with Random Examers were used for reverse transcription according to the manufacturers' instructions. Real Time PCR analysis was performed in multiplex using commercially available β-actin VIC-conjugated probe (cat. n. 4352341E, Applied Biosystems) and custom designed mRENIN FAM-conjugated probe (Assay by Design, Applied Biosystems; Forward: […]; Reverse: […]; Probe: FAM-[…]-MGB). Reactions were performed in a 25 μL volume containing 12.5 μl […] (Applied Biosystems), 10 ng/reaction/well cDNA, and 2.5 μM each gene-specific primer. An ABI PRISM 7700 analyzer (Applied Biosystems) was used at 50° C. for 2 minutes and 95° C. for 10 minutes, followed by 40 cycles at 95° C. for 15 seconds and 60° C. for 1 minute. Cycle threshold (Ct) values were exported onto Excel worksheets for analysis. Test cDNA results were normalized versus mouse β-actin housekeeping gene. Fold differences in gene expression between the subtracted versus the unsubtracted populations were expressed using the method of 2^−ΔΔCt. (Table 4)

HT 1376 = test: Proliferation assay, bladder cancer cell line HT1376; type: cell-based; conditions: Homo sapiens, 72 h culture, CyQuant proliferation assay
Procedure: as §1

Row | SMILES | IC50 (NHEK) | IC50 (RT4; Homo sapiens, RT-4) | IC50 (IFN-γ production) | IC50 (RT112; Homo sapiens, RT-112) | MTD at 4 days [1] | IC50 (Renin mRNA) | IC50 (RT4) | IC50 (RT4; Homo sapiens, RT-4, 72 h) | IC50 (RT112) | IC50 (RT112; Homo sapiens, RT-112, 72 h) | IC50 (HT 1376)
1 | [2H]C([2H])([2H])C(O)(CCCC1([C@H]2CCC3/C(=C/C=C4/C[C@@H](O)C[C@H](F)C4=C)CCC[C@@]32C)CC1)C([2H])([2H])[2H] (stereo partly drawn) [Compound 5, 1α-Fluoro-25-hydroxy-20-cyclopropyl-26,27-hexadeutero-cholecalciferol] | 4.7 µM | 3.1 µM | > 10 nM | 15.7 µM | 0.1 mg/kg |  |  |  |  |  | 
2 | [2H]C([2H])([2H])C(O)(CCCC1([C@H]2CCC3/C(=C/C=C4/C[C@@H](OC(C)=O)C[C@H](OC(C)=O)C4=C)CCC[C@@]32C)CC1)C([2H])([2H])[2H] (stereo partly drawn) [Compound 4, 1,3-Di-O-acetyl-1,25-dihydroxy-20-cyclopropyl-26,27-hexadeutero-cholecalciferol] | 5.6 µM | 3 µM | 0.464 nM | 18.7 µM | 0.03 mg/kg | 0.274 µM |  |  |  |  | 
3 | C=C1/C(=C\C=C2/CCC[C@]3(C)C([C@H](C)CCCC(C)(C)O)CC[C@@H]23)C[C@@H](O)C[C@@H]1O (stereo partly drawn) [1,25(OH)2D3, 1,25-dihydroxycholecalciferol, reference compound] | 4.5 µM |  | 0.0496 nM |  |  |  | 26 µM | 45 µM | 28.7 µM | 19 µM | 50 µM
4 | [2H]C([2H])([2H])C(O)(CCCC1([C@H]2CCC3/C(=C/C=C4C[C@@H](OC(C)=O)C[C@H](OC(C)=O)C4)CCC[C@@]32C)CC1)C([2H])([2H])[2H] (stereo partly drawn) [Compound 2, 1,3-Di-O-acetyl-1,25-dihydroxy-20-cyclopropyl-26,27-hexadeutero-19-nor-cholecalciferol] | 7.2 µM | 3.1 µM | 0.388 nM | 16.3 µM | 0.03 mg/kg | 0.102 µM |  |  |  |  | 
5 | [2H]C([2H])([2H])C(O)(CCCC1([C@H]2CCC3/C(=C/C=C4/C[C@@H](O)C[C@H](O)C4=C)CCC[C@@]32C)CC1)C([2H])([2H])[2H] (stereo partly drawn) [Compound 3, 1,25-Dihydroxy-20-cyclopropyl-26,27-hexadeutero-cholecalciferol] | 6.6 µM | 2.9 µM | 0.065 nM | 19.7 µM | 0.03 mg/kg | 0.0429 µM |  |  |  |  | 
6 | [2H]C([2H])([2H])C(O)(CCCC1([C@H]2CCC3/C(=C/C=C4/C[C@@H](OC(C)=O)C[C@H](F)C4=C)CCC[C@@]32C)CC1)C([2H])([2H])[2H] (stereo partly drawn) [Compound 6, 3-O-acetyl-1α-fluoro-25-hydroxy-20-cyclopropyl-cholecalciferol] | 5.6 µM | 4.5 µM | 0.747 nM | 19.7 µM | 0.03 mg/kg | 0.00448 µM |  |  |  |  | 
7 | [2H]C([2H])([2H])C(O)(CCCC1(C2=CCC3/C(=C/C=C4/CC(O)C[C@H](F)C4=C)CCC[C@]23C)CC1)C([2H])([2H])[2H] (stereo partly drawn) [Compound 9, 1α-Fluoro-25-hydroxy-16-ene-20-cyclopropyl-26,27-hexadeutero-cholecalciferol] | 7 µM | 4.3 µM | 0.492 nM | ≥ 30 µM | 0.01 mg/kg | 0.0128 µM |  |  |  |  | 
8 | [2H]C([2H])([2H])C(O)(CCCC1(C2=CCC3/C(=C/C=C4/CC(O)C[C@H](O)C4)CCC[C@]23C)CC1)C([2H])([2H])[2H] (stereo partly drawn) [Compound 7, 1,25-Dihydroxy-16-ene-20 cyclopropyl-26,27-hexadeutero-19-nor-cholecalciferol] | > 10 µM | 8.9 µM | 0.032 nM | > 30 µM | 0.001 mg/kg | 0.00736 µM |  |  |  |  | 
9 | [2H]C([2H])([2H])C(O)(CCCC1(C2=CCC3/C(=C/C=C4/CC(O)C[C@H](O)C4=C)CCC[C@]23C)CC1)C([2H])([2H])[2H] (stereo partly drawn) [Compound 8, 1,25-Dihydroxy-16-ene-20-cyclopropyl-26,27-hexadeutero-cholecalciferol] | 7 µM | 2.4 µM | 0.063 nM | ≥ 30 µM | 0.01 mg/kg | 0.00489 µM |  |  |  |  | 
10 | [2H]C([2H])([2H])C(O)(CCCC1([C@H]2CCC3/C(=C/C=C4C[C@@H](O)C[C@H](O)C4)CCC[C@@]32C)CC1)C([2H])([2H])[2H] (stereo partly drawn) [Compound 1, 1,25-Dihydroxy-20-cyclopropyl-26,27-hexadeutero-19-nor-cholecalciferol] | 5.6 µM | 11.7 µM | 0.051 nM | > 30 µM | 0.03 mg/kg | 0.155 µM |  |  |  |  | 

Source: patent US20090298800A1, “1,25-DIHYDROXY, 20-CYCLOPROPYL,26-27-DEUTEROALKYL VITAMIN D3 COMPOUNDS AND METHODS OF USE THEREOF” (BioXell S.p.A., priority 2005, published 2009)
